The record followed here is ChEMBL document CHEMBL1287642, “Synthesis, antiviral activity and cytotoxicity evaluation of Schiff bases of some 2-phenyl quinazoline-4(3)H-ones” (Eur J Med Chem, 2010).

Structures are written as SMILES. Converted amounts (≈) assume the structure as drawn.

The test system of the experiment is Vaccinia virus. Nature of the experiment: Antiviral activity against Vaccinia virus infected in human HEL cells assessed as protection against virus-induced cytopathogenicity after 2 days. The class given is functional, organism-based. Particulars: Orthopoxvirus vaccinia, 48 h.
For the compound `Nc1nc2c(ncn2COC(CO)CO)c(=O)[nH]1` [GANCICLOVIR], the EC50 was > 100 µg/mL.
As for `COc1ccccc1/C=N/n1c(-c2ccccc2)nc2ccccc2c1=O`, the EC50 was > 20 µg/mL.
Turning to `C/C(=N\n1c(-c2ccccc2)nc2ccccc2c1=O)c1ccccc1`, the EC50 was > 100 µg/mL.
Take `COc1ccc(/C=N/n2c(-c3ccccc3)nc3ccccc3c2=O)cc1O`: the EC50 came out at 20 µg/mL (≈ 53.9 µM).
Turning to `O=c1c2ccccc2nc(-c2ccccc2)n1/N=C/c1ccccc1O`, the EC50 was found to be 0.8 µg/mL (≈ 2.34 µM).
For the compound `O=c1c2ccccc2nc(-c2ccccc2)n1/N=C/c1cccc([N+](=O)[O-])c1`, the EC50 was > 20 µg/mL.
With `O=c1c2ccccc2nc(-c2ccccc2)n1/N=C/c1ccc(Cl)cc1`, the EC50 came to 20 µg/mL (≈ 55.6 µM).
For `Nc1ccn(C[C@@H](CO)OCP(=O)(O)O)c(=O)n1.O.O` [CIDOFOVIR] the value was 8 µg/mL; for `O=c1c2ccccc2nc(-c2ccccc2)n1/N=C/c1ccccc1`, 9 µg/mL (≈ 27.7 µM); for `COc1ccc(/C=N/n2c(-c3ccccc3)nc3ccccc3c2=O)cc1`, 9 µg/mL (≈ 25.3 µM).
For `O=c1c2ccccc2nc(-c2ccccc2)n1/N=C/c1ccc(O)cc1` the value was 12 µg/mL (≈ 35.2 µM).
As to `C/C(=N\n1c(-c2ccccc2)nc2ccccc2c1=O)c1ccc(O)cc1`, the 50% effective concentration (EC50) was > 100 µg/mL.
For `NC(=O)c1ncn([C@@H]2O[C@H](CO)[C@@H](O)[C@H]2O)n1` [RIBAVIRIN], the EC50 is > 250 µg/mL.
Regarding `O=c1[nH]c(=O)n([C@H]2C[C@H](O)[C@@H](CO)O2)cc1/C=C/Br` [BRIVUDINE], the EC50 turned out to be 4 µg/mL (≈ 12 µM).
